{
  "source": "ChEMBL document CHEMBL1201862",
  "about": "“PubChem BioAssay data set” (2004)",
  "key": {"[1]": {"target": "DNA dC->dU-editing enzyme APOBEC-3G (Homo sapiens, UniProt Q9HC16)", "sequence (Q9HC16 whole entry)": "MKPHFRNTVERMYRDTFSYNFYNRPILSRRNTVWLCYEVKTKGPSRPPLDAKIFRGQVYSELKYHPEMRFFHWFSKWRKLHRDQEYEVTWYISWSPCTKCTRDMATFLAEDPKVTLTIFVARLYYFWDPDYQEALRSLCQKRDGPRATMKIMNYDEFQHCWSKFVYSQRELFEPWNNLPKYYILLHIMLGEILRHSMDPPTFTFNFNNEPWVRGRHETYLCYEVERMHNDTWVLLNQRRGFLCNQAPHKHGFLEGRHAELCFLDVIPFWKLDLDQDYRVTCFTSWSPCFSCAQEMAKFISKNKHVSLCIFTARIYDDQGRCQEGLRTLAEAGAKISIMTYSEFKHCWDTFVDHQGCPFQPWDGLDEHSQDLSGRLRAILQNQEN", "experiment": "Dose Response confirmation of small molecule APOBEC3G DNA Deaminase Inhibitors via a fluorescence-based single-stranded DNA deaminase assay. [Related pubchem assays (depositor defined):AID493012, AID493028]", "type": "functional"}, "[2]": {"target": "DNA dC->dU-editing enzyme APOBEC-3A (Homo sapiens, UniProt P31941)", "sequence (P31941 whole entry)": "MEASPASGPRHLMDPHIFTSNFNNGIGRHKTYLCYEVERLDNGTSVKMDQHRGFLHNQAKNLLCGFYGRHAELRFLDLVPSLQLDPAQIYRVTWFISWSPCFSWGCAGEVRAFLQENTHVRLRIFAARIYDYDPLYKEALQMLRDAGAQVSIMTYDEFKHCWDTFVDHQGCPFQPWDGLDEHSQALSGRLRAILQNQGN", "experiment": "APOBEC3A DNA deaminase inhibitors, dose response, biochemical (AID 504722)", "type": "functional"}, "[3]": {"target": "G-protein coupled receptor 55 (Homo sapiens, UniProt Q9Y2T6)", "sequence (Q9Y2T6 whole entry)": "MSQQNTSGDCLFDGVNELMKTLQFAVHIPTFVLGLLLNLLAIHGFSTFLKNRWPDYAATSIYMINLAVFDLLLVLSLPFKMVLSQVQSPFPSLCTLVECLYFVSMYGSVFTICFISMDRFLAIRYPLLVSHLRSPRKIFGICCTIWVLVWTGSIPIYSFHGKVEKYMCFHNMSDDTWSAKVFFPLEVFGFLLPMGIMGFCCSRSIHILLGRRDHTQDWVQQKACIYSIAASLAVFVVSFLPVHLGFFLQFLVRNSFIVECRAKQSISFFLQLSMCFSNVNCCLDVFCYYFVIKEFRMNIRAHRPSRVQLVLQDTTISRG", "experiment": "GPR55 antagonists blocking LPI-driven arrestin recruitment, primary screen, imaging, U2OS, beta-arrestin-GFP, LPI agonist (AID 2013);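 further: antagonist potency measured as reduced agonist-driven arrestin aggregation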", "type": "functional"}, "[4]": {"target": "Peroxisome proliferator-activated receptor gamma/Nuclear receptor corepressor 2 (Homo sapiens, UniProt P37231+Q9Y618)", "sequence (P37231 whole entry)": "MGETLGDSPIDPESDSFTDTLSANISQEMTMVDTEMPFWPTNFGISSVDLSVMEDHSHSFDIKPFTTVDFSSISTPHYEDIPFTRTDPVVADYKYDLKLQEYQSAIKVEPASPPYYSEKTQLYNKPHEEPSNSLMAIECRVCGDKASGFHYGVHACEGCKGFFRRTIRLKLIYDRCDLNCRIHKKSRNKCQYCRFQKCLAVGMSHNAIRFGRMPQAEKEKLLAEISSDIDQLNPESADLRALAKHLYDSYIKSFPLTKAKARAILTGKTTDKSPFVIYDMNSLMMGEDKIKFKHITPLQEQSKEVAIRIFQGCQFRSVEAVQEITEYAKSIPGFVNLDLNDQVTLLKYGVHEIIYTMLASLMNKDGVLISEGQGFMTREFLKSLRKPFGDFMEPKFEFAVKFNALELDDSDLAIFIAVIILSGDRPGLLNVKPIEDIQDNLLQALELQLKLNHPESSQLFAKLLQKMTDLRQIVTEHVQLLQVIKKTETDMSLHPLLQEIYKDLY", "sequence (Q9Y618 whole entry)": "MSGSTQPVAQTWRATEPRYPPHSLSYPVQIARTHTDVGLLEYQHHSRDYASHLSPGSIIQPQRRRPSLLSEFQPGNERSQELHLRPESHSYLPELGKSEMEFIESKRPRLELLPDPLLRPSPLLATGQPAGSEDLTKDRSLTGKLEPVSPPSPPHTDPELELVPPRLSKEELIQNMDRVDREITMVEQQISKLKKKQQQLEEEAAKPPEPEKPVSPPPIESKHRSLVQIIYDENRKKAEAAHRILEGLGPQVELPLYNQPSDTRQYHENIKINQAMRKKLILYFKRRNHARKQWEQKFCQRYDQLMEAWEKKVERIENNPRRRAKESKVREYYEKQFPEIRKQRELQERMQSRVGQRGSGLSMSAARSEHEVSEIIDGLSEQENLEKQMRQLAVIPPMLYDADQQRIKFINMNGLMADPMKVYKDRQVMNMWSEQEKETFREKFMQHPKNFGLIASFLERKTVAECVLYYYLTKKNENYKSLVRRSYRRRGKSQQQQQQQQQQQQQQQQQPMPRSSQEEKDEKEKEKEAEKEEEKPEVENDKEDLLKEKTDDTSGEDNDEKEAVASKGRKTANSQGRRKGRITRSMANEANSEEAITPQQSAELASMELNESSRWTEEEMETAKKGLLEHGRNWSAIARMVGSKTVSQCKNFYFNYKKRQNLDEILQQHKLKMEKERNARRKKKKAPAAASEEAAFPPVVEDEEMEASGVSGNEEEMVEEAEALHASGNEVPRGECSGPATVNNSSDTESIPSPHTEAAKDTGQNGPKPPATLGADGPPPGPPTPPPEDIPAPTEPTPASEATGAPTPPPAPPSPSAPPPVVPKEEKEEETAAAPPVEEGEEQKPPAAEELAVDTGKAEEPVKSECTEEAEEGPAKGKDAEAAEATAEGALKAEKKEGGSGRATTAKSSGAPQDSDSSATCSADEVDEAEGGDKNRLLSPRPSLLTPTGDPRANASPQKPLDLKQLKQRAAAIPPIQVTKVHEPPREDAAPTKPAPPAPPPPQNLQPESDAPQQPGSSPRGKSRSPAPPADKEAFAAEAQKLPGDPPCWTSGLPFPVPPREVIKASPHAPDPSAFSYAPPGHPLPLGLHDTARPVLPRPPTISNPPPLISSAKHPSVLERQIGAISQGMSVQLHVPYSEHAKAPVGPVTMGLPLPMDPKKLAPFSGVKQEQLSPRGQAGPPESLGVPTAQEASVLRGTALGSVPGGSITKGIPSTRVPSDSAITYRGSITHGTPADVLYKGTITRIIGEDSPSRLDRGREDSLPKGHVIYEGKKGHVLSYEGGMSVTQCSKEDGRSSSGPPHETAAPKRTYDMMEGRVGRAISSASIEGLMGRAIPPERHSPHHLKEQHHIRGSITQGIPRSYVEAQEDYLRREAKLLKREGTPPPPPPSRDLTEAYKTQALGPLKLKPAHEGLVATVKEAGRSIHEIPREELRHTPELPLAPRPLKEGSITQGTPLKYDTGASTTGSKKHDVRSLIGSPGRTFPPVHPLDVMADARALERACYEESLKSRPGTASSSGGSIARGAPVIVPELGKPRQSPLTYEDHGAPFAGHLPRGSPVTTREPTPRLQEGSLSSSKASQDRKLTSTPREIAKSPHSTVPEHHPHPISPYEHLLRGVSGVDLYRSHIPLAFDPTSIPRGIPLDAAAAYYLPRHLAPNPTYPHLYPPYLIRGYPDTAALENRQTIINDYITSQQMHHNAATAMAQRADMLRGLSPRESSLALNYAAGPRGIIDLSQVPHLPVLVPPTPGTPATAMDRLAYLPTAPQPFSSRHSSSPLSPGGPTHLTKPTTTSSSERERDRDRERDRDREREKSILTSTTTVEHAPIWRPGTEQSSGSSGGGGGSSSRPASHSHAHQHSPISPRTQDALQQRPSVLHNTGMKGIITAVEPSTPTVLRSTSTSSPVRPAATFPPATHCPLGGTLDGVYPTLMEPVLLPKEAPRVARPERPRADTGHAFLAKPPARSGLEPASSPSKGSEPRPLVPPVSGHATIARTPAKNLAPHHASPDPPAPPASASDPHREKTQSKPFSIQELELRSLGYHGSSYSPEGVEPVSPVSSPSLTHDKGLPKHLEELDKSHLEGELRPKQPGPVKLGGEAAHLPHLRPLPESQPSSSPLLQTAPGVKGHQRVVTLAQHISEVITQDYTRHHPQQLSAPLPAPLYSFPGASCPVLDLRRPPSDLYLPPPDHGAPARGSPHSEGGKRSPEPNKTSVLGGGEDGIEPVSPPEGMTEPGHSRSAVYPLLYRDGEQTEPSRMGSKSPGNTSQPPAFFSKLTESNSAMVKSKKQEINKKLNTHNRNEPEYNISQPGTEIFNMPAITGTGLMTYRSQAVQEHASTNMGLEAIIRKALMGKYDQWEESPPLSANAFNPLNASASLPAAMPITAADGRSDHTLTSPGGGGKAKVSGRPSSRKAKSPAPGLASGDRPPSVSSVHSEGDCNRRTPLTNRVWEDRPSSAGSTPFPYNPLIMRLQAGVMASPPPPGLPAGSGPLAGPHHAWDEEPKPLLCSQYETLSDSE", "type": "functional"}, "[5]": {"target": "Photoreceptor-specific nuclear receptor (Homo sapiens, UniProt Q9Y5X4)", "sequence (Q9Y5X4 whole entry)": "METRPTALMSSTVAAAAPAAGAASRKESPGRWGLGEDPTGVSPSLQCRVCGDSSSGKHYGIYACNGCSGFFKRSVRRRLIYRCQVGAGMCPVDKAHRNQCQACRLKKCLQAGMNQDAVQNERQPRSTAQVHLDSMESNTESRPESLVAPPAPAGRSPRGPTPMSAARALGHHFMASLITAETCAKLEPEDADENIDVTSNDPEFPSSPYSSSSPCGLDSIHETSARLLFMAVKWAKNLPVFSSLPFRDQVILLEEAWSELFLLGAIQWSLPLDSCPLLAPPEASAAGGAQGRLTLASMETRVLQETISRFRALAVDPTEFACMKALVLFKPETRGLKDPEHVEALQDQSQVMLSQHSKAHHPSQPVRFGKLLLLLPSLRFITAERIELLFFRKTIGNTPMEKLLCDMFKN", "type": "functional"}, "[6]": {"experiment": "HEp-2 cell cytotoxicity, dose response, cytotoxicity control for RSV inhibitor project, HTS (AID 2410)", "type": "functional", "details": "human respiratory syncytial virus"}, "[7]": {"experiment": "cells"}, "[8]": {"target": "T1, Type-1 angiotensin II receptor (Homo sapiens, UniProt P30556)", "T1 sequence (P30556 whole entry)": "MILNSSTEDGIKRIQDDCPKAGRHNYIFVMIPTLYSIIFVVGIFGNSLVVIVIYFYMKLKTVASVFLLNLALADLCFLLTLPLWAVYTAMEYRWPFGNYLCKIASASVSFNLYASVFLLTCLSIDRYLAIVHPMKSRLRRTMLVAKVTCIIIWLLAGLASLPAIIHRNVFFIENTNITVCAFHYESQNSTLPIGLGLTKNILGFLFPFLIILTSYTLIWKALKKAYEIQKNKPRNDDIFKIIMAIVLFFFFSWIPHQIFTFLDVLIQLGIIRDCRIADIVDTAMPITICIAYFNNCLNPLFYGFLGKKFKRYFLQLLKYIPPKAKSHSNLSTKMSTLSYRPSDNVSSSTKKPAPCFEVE", "experiment": "AT1 receptor agonists, dose response, selectivity assay for APJ receptor agonist project, cell-based, uHTS hits (AID 488865);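 further: beta-arrestin recruitment to AT1 measured by enzyme fragment complementation luminescence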", "type": "functional"}},
  "note": "Active and inactive are the calls of the source.",
  "data": [
    {"compound": "O=[N+]([O-])c1ccccc1/C=N/n1c(S)nnc1-c1ccccc1", "values": [
      {"measurement": "IC50", "setting": "[1]", "value": "4.25 µM (active)"},
      {"measurement": "IC50", "setting": "[2]", "value": "> 100 µM (inactive)"}
    ]},
    {"compound": "COC(=O)c1cc2c(-c3ccccc3)c(C)c3ccccn3c-2c1C(=O)OC", "values": [
      {"measurement": "IC50", "setting": "[3]", "value": "2.58 µM (active)"},
      {"measurement": "IC50", "setting": "[4]", "value": "1.31 µM (active)"},
      {"measurement": "IC50", "setting": "[5]", "value": "> 1.48 µM (active)"},
      {"measurement": "CC50", "setting": "[6]", "value": "27 µM (active)"},
      {"measurement": "IC50", "setting": "[7]", "value": "23.4 µM (active)"}
    ]},
    {"compound": "COC/C=C/C1=CC2=CC(=O)C(C)(OC(=O)c3cnc4ccccc4n3)C(=O)C2=CN1c1ccccc1", "note": "(stereo not drawn)", "values": [
      {"measurement": "EC50", "setting": "[8]", "value": "> 100 µM (inactive)"}
    ]}
  ]
}
